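A five-concentration, 48-hour dose response in 96-well plates underlies each endpoint, interpolated linearly between surrounding concentrations. Abbreviation: GI50, concentration required for 50% inhibition of growth. TGI is the concentration that stops growth completely.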

The text below walks through data of PubChem BioAssay (NCI).

Common to all, as to assay: NCI tumour cell line growth inhibition, 48 h
For assay [1], the system named is MDA-N.
The subject of assay [2] is SN12K1 renal.
Assay [3] deals with DMS 273 small cell lung.
The test system of assay [4] is MDA-MB-435.
Assay [5] deals with MCF7 breast.
Assay [6] relates to P388 leukemia.
Assay [7] has as its system DMS 114 small cell lung.
Assay [8] has as its system KM20L2 colon.
Assay [9] deals with DLD-1 colon.
Assay [10] relates to PC-3 prostate.

In the case of `CCCCS(=N)(=O)CC[C@H](N)C(=O)O` (some centres undefined), the GI50 in assay [1] was more than 5 mM; in assay [4], more than 10 mM; in assay [5], more than 10 mM; in [10], more than 10 mM. Further, the TGI in assay [1] was more than 10 mM; in [2], 3.75 mM; in assay [3], more than 5 mM; in assay [4], more than 10 mM; in [5], more than 10 mM; in assay [6], 5 mM. In addition, the TGI in assay [7] is more than 5 mM; in [8], more than 5 mM; in assay [9] it was more than 5 mM; in assay [10], more than 10 mM.
